Data published in ChEMBL document CHEMBL3580624 (J Nat Prod, 2015).
Active and inactive are the calls of the source. No cut-off for these calls is given here.

How the values were obtained:
Prolyl endopeptidase = molecular target: T1, Prolyl endopeptidase (Homo sapiens, UniProt P48147); assay: Inhibition of human recombinant POP pre-incubated for 15 mins before Z-Gly-Pro-AMC substrate addition and further incubated for 1 hr by fluorimetry
T1 sequence (P48147 whole entry): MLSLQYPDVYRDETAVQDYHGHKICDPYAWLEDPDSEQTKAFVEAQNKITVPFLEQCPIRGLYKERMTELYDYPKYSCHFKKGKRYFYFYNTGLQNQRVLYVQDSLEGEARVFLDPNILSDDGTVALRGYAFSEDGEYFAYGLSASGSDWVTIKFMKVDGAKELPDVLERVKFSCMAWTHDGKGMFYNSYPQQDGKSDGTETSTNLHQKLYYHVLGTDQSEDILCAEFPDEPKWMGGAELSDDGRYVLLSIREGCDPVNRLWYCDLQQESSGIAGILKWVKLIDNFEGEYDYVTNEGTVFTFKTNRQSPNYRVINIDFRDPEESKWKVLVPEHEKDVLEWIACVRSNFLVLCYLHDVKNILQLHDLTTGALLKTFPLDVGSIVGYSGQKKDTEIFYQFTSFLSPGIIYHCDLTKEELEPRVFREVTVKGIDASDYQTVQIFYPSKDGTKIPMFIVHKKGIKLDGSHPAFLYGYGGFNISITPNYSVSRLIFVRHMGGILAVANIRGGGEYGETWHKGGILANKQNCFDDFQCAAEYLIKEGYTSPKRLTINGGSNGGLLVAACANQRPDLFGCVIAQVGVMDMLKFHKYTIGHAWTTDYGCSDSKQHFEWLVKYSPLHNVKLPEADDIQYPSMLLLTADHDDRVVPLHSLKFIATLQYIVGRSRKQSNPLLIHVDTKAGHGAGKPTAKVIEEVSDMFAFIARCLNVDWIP

Bos taurus = organism: Bos taurus; assay: Inhibition of bovine trypsin at 25 uM pre-incubated for 15 mins before Bz-Arg-AMC-HCl substrate addition and further incubated for 1 hr by fluorimetry
[1] = molecular target: Chymotrypsinogen A (Bos taurus) (UniProt P00766); assay: Inhibition of bovine alpha-chymotrypsin at 75 uM pre-incubated for 15 mins before Ala-Ala-Phe-AMC substrate addition and further incubated for 1 hr by fluorimetry

Row | SMILES | IC50 (Prolyl endopeptidase) | inhibition (Bos taurus) | inhibition [1]
1 | CC[C@H](C)[C@@H]1NC(=O)[C@@H]2CCCN2C(=O)[C@H](CC(C)C)NC(=O)CNC(=O)[C@H](CC(N)=O)NC(=O)[C@H](CCCNC(=N)N)NC(=O)[C@H]([C@@H](C)O)NC(=O)[C@@H]2CSSC[C@@H]3NC(=O)[C@H]([C@@H](C)O)NC(=O)CNC(=O)CNC(=O)[C@H](C(C)C)NC(=O)[C@@H]4CSSC[C@H](NC(=O)[C@H]([C@@H](C)O)NC(=O)[C@H](CSSC[C@H](NC1=O)C(=O)NCC(=O)N[C@@H](CCC(=O)O)C(=O)N[C@@H](CO)C(=O)N4)NC(=O)CNC(=O)[C@@H]1CCCN1C(=O)[C@H]([C@@H](C)O)NC(=O)[C@H](CC(N)=O)NC3=O)C(=O)N[C@@H]([C@@H](C)O)C(=O)N[C@@H](Cc1c[nH]c3ccccc13)C(=O)N1CCC[C@H]1C(=O)N[C@@H](C(C)C)C(=O)N2 (stereo in doubt; form 1) | 9.57 µM |  | 
2 | CC[C@H](C)[C@@H]1NC(=O)[C@@H]2CCCN2C(=O)[C@H](CC(C)C)NC(=O)CNC(=O)[C@H](CC(N)=O)NC(=O)[C@H](CCCNC(=N)N)NC(=O)[C@H]([C@@H](C)O)NC(=O)[C@@H]2CSSC[C@@H]3NC(=O)[C@H]([C@@H](C)O)NC(=O)CNC(=O)CNC(=O)[C@H](C(C)C)NC(=O)[C@@H]4CSSC[C@H](NC(=O)[C@H]([C@@H](C)O)NC(=O)[C@H](CSSC[C@H](NC1=O)C(=O)NCC(=O)N[C@@H](CCC(=O)O)C(=O)N[C@@H](CO)C(=O)N4)NC(=O)CNC(=O)[C@@H]1CCCN1C(=O)[C@H]([C@@H](C)O)NC(=O)[C@H](CC(N)=O)NC3=O)C(=O)N[C@@H]([C@@H](C)O)C(=O)N[C@@H](Cc1c[nH]c3ccccc13)C(=O)N1CCC[C@H]1C(=O)N[C@@H](C(C)C)C(=O)N2 (stereo in doubt; form 2) [listing 1 of 2 here] | 8.6 µM |  | 
3 | CC[C@H](C)[C@@H]1NC(=O)[C@@H]2CCCN2C(=O)[C@H](CC(C)C)NC(=O)CNC(=O)[C@H](CC(N)=O)NC(=O)[C@H](CCCNC(=N)N)NC(=O)[C@H]([C@@H](C)O)NC(=O)[C@@H]2CSSC[C@@H]3NC(=O)[C@H]([C@@H](C)O)NC(=O)CNC(=O)CNC(=O)[C@H](C(C)C)NC(=O)[C@@H]4CSSC[C@H](NC(=O)[C@H]([C@@H](C)O)NC(=O)[C@H](CSSC[C@H](NC1=O)C(=O)NCC(=O)N[C@@H](CCC(=O)O)C(=O)N[C@@H](CO)C(=O)N4)NC(=O)CNC(=O)[C@@H]1CCCN1C(=O)[C@H]([C@@H](C)O)NC(=O)[C@H](CC(N)=O)NC3=O)C(=O)N[C@@H]([C@@H](C)O)C(=O)N[C@@H](Cc1c[nH]c3ccccc13)C(=O)N1CCC[C@H]1C(=O)N[C@@H](C(C)C)C(=O)N2 (stereo in doubt; form 2) [listing 2 of 2 here] |  | inactive | inactive
